Data as given in ChEMBL document CHEMBL1201862, “PubChem BioAssay data set” (2004).
Active and inactive are the calls of the source.

How the values were obtained:
[1] = tested on: Streptococcus; experiment: Group A Streptococcus viability loss, dose response, counter-screen for streptokinase expression inhibitor project, luminescence, BacTiterGlo (AID 1915); format: functional, organism-based;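 further: potency for reduction of bacterial viability or growth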
[2] = tested on: Streptococcus; experiment: Luminescence Microorganism-Based Dose Response Follow up to Identify Compounds Cytotoxic to Streptococcus. [Related pubchem assays: 1677 (Project Summary), 1915, 1914, 1902 (Retest at Dose), 1900 (Counter Screen), 1662 (Primary HTS)]; format: functional, organism-based
[3] = tested on: Streptococcus sp. 'group A'; experiment: growth inhibition of control SK(-) GAS strain, dose response, counter-screen for streptokinase expression inhibitor project, luminescence, kanamycin, BacTiterGlo, confirmation (AID 1900); format: functional, organism-based
[4] = biological target: T1, Streptokinase A (Streptococcus pyogenes serotype M1, UniProt P10520); experiment: S. pyogenes streptokinase expression inhibitors, potency, dose response, plasminogen activation absorbance, OD405 (AID 1914); format: functional, Streptococcus pyogenes M1 GAS;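 further: secreted streptokinase activity via plasminogen activation per viability signal from cell pellet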
T1 sequence (P10520 whole entry): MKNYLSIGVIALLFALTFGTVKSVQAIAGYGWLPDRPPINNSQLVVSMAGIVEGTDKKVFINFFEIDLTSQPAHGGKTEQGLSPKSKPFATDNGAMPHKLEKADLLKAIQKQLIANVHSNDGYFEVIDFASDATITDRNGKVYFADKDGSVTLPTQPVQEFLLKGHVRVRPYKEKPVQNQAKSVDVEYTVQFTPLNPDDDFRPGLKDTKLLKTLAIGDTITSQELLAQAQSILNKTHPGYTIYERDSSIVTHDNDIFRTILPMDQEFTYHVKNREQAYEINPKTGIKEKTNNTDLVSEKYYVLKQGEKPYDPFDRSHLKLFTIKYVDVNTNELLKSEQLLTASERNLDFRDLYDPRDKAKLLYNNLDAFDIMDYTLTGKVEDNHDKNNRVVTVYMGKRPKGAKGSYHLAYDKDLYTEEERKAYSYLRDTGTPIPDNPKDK

[5] = polyadenylation inhibitors in yeast reporter, dose response, luminescence, S. cerevisiae SKY197-pL101 (AID 2525); format: functional, cell-based
[6] = biological target: Polyadenylate-binding protein 1 (Homo sapiens, UniProt P11940); experiment: PABP poly(A) RNA binding inhibitors, primary screen, biochemical, fluorescence polarization, uHTS (AID 2014)
[7] = biological target: Eukaryotic translation initiation factor 4H (Homo sapiens, UniProt Q15056); experiment: human eIF4H binding inhibitors, primary screen, translation initiation inhibitor project, biochemical, uHTS, fluorescence polarization (AID 2012)
[8] = biological target: Cytochrome P450 2C9 (Homo sapiens, UniProt P11712); settings: Potency
[9] = biological target: Insulin-degrading enzyme (Homo sapiens, UniProt P14735); experiment: Dose Response: Fluorescence polarization-based cell-based high throughput dose response assay for inhibitors of insulin-degrading enzyme (IDE). [Related pubchem assays: 434962 (Primary screen (IDE inhibitors in singlicate)), 449730 (Counterscreen (Cytotoxicity in triplicate)), 435028 (Confirmation (IDE inhibitors in triplicate)), 434984 (Summary …; format: functional
[10] = Counterscreen for IDE inhibitors: Luminescence-based cell-based high throughput dose response assay to identify compounds that are cytotoxic to HEK cells. [Related pubchem assays: 434962 (Primary screen (IDE inhibitors in singlicate)), 449730 (Counterscreen (Cytotoxicity in triplicate)), 435028 (Confirmation (IDE inhibitors in triplicate)) …; format: functional; settings: HEK293
[11] = HeLa cell cytotoxicity, dose response, cytotoxicity control for MgcRacGAP inhibitor project (AID 624300); format: functional
[12] = biological target: T2, Rac GTPase-activating protein 1 (Homo sapiens, UniProt Q9H0H5); experiment: MgcRacGAP GTPase-activating activity inhibitors, confirmation, biochemical, ADP Hunter fluorescence, primary and confirmatory (AID 624330); format: functional
T2 sequence (Q9H0H5 whole entry): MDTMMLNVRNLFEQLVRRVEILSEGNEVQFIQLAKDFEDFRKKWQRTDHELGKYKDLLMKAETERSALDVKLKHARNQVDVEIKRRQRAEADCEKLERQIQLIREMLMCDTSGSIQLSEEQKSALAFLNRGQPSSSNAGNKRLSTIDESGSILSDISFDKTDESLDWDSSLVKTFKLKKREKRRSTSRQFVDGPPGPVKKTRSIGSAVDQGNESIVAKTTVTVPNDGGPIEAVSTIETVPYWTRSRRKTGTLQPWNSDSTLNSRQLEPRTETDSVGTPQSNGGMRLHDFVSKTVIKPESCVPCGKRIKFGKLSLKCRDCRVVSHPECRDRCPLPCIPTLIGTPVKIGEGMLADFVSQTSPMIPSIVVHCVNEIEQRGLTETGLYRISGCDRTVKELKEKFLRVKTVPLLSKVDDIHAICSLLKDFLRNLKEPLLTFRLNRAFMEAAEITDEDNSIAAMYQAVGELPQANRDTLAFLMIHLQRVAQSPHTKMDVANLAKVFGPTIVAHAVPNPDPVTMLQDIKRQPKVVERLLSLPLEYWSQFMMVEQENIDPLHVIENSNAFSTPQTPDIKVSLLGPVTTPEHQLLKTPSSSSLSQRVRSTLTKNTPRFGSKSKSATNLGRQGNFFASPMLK

Chain of Insulin-degrading enzyme (P14735 whole entry): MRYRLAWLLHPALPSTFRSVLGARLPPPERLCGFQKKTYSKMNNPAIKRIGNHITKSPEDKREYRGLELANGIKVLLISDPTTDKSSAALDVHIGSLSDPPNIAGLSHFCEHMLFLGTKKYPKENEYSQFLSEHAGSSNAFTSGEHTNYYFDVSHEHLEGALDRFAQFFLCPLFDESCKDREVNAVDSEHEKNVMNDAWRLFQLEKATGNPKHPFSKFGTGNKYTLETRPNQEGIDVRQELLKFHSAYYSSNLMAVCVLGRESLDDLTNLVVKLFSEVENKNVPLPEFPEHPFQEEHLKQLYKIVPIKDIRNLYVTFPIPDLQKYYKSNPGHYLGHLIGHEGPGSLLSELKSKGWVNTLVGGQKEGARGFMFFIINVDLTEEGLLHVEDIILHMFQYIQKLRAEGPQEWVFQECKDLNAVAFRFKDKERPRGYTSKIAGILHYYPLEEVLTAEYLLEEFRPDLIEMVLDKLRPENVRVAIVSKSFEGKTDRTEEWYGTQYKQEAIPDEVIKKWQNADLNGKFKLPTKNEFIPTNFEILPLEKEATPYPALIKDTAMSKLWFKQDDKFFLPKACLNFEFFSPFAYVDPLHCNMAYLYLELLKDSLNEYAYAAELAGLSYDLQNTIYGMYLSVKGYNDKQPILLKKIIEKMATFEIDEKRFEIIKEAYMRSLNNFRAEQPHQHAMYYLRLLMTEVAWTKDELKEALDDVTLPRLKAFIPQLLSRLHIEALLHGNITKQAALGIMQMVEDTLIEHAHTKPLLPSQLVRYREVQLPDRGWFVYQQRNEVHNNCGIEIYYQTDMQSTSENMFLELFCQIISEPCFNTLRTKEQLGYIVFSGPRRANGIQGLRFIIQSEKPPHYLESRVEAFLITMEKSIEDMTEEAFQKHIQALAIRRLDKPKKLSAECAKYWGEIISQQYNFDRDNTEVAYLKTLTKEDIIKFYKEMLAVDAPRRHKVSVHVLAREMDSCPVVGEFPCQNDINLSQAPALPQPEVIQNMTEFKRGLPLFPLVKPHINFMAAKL
Chain of Polyadenylate-binding protein 1 (P11940 whole entry): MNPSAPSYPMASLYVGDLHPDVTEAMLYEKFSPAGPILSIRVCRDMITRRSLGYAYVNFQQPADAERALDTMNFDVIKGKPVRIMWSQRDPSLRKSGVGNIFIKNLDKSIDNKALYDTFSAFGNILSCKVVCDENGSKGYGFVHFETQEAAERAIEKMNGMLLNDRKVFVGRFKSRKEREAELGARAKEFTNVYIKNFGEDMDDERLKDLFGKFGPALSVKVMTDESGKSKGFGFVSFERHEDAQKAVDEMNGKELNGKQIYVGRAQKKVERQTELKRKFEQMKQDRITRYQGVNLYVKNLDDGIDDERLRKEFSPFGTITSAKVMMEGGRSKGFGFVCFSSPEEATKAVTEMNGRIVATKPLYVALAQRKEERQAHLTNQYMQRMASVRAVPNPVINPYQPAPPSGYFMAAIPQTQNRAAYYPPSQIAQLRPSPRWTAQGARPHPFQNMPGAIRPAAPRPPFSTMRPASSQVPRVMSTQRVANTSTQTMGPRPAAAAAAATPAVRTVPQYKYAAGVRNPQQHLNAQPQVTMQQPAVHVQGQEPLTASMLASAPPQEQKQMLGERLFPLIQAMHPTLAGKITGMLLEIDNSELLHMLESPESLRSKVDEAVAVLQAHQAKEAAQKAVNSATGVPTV
Chain of Cytochrome P450 2C9 (P11712 whole entry): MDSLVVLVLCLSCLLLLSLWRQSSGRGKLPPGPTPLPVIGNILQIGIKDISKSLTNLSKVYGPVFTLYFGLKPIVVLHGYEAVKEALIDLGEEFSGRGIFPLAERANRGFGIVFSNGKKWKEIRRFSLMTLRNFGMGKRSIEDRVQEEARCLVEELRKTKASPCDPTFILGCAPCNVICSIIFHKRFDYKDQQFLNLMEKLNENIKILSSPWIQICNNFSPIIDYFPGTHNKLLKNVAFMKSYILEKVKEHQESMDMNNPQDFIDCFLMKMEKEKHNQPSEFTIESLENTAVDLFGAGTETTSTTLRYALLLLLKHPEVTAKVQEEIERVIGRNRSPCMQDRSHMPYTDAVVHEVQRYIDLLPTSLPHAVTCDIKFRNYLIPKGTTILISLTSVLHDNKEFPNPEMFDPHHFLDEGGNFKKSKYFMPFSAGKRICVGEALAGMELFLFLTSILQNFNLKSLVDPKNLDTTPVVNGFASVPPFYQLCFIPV

## Cc1ccc(C(=O)n2c3ccccc3c3ccccc32)cc1
[1]
  EC50: > 150 µM (not active)
[2]
  EC50: > 500 µM (not active)
[3]
  EC50: 21.6 µM (active)
[4]
  EC50: 6.45 µM (active)

## Cc1ccc2[nH]c(/C(C#N)=C/c3ccc([N+](=O)[O-])o3)nc2c1
[5]
  EC50: 4.03 µM (active)

## CCOc1ccc2nc(SCC(=O)NC(=O)NCc3ccco3)[nH]c2c1
[6]
  IC50: 62.3 µM (active)
[7]
  IC50: 13.3 µM (active)

## CCCCCC[C@H]1C(=O)O[C@@H](C)[C@H](NC(=O)c2cccc(NC=O)c2O)C(=O)O[C@@H](C)[C@@H]1OC(=O)CC(C)C
[8]
  AC50: 31.6 µM (inconclusive)

## Cc1cc(/C=C2\SC(=S)NC2=O)cc(C)c1O
[9]
  IC50: > 56 µM (not active)
[10]
  IC50: > 55.7 µM (not active)
[11]
  CC50: 100 µM (active)
[12]
  IC50: 25.8 µM (active)
